# Assay results published in patent US20240209028A1, “CNP COMPOUNDS” (priority 2022, published 2024).
# Starred links: 1 amine or outer side, 2 acyl side, 3 side chain; linkers in the order of their positions; H or OH if unused. Positions of bridges follow the written chain, without caps; N, C: chain ends. Residues, ends and D or L forms follow the SMILES beside them. *: point of attachment. C18 diacid = O=C(O)CCCCCCCCCCCCCCCCC(=O)*; γGlu = O=C(O)[C@H](CCC(=O)[*:2])N[*:1]; AEEA = NCCOCCOCC(=O)O
# Biological target: T1, human natriuretic peptide receptor 2 (hNPR2) (Homo sapiens, UniProt P20594)
# T1 construct: expressed in transfected cells; host or cells: HEK293 (ATCC CRL-1573), clone 35, co-transfected with pGloSensor-42F
# T1 sequence (P20594 23-1047): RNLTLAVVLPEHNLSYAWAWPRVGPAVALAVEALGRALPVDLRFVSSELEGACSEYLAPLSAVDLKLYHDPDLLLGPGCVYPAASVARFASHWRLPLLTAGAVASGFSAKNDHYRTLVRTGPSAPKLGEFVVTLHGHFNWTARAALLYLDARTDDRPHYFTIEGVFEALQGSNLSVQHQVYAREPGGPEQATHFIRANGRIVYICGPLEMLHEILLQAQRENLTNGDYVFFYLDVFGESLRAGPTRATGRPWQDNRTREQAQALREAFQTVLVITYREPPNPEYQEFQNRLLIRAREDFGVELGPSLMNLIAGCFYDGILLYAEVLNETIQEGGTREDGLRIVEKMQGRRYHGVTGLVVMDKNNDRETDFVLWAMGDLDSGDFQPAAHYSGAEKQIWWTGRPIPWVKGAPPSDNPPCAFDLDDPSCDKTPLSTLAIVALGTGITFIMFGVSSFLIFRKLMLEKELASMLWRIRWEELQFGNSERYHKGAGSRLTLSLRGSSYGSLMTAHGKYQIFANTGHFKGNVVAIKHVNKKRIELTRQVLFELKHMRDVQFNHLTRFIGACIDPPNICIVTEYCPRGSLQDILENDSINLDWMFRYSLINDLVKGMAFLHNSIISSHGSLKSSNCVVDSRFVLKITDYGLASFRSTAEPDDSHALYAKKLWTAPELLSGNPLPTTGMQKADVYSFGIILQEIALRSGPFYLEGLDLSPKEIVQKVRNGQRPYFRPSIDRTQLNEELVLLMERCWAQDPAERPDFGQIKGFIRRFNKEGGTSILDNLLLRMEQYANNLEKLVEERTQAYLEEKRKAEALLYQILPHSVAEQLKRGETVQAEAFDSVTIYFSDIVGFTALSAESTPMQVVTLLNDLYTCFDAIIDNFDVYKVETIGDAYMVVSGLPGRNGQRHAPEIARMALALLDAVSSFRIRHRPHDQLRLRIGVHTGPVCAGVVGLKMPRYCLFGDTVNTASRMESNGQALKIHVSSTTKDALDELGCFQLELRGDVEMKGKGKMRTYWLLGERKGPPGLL
# Assay: In vitro hNPR2 activity assay (cGMP GloSensor reporter, HEK293)
# Assay type: cell-based
# Settings: potency relative to CNP22 (0065)
# How it was run: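 Potency is the EC50 from a four-parameter logistic fit, also expressed relative to the in-plate CNP22 control (×100), with at least two replicates. Compounds (ten concentrations, […], HSA-free diluent with 1% OVA, 0.01% Tween20) were incubated 30 min at 37 °C on HEK293 cells co-expressing hNPR2 and a GloSensor cGMP luciferase. Luminescence detected with Bright-Glo.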
row,Compound,hNPR2 0% HSA. [EC50% rel CNP] [%]
1,CC[C@H](C)[C@@H]1NC(=O)[C@H](CCCNC(=N)N)NC(=O)[C@H](CC(=O)O)NC(=O)[C@H](CC(C)C)NC(=O)[C@@H]2CCCN2C(=O)[C@H](CC(C)C)NC(=O)CNC(=O)[C@H](Cc2ccccc2)NC(=O)[C@@H](NC(=O)CNC(=O)[C@H](CCC(N)=O)NC(=O)[C@H](CO)NC(=O)[C@H](CC(C)C)NC(=O)CNC(=O)[C@H](CCCCN)NC(=O)[C@H](CCCCN)NC(=O)[C@H](CCC(N)=O)NC(=O)[C@H](C)NC(=O)CNC(=O)[C@H](CCCCN)NC(=O)[C@H](Cc2ccc(O)cc2)NC(=O)[C@H](CCCCN)NC(=O)[C@H](Cc2c[nH]cn2)NC(=O)[C@H](C)NC(=O)[C@H](CCC(N)=O)NC(=O)[C@@H]2CCCN2C(=O)[C@H](Cc2c[nH]cn2)NC(=O)[C@H](CCC(=O)O)NC(=O)[C@H](CCC(N)=O)NC(=O)COCCOCCNC(=O)COCCOCCNC(=O)CC[C@H](NC(=O)CC[C@H](NC(=O)CC[C@H](NC(=O)CCCCCCCCCCCCCCCCC(=O)O)C(=O)O)C(=O)O)C(=O)O)CSSC[C@@H](C(=O)O)NC(=O)CNC(=O)[C@H](CC(C)C)NC(=O)CNC(=O)[C@H](CO)NC(=O)[C@H](CC(C)C)NC(=O)[C@H](CO)NC(=O)CNC1=O [compound 1382] ({C18 diacid-γGlu-γGlu-γGlu-AEEA-AEEA}-QEHPQAHKYKGAQKKGLSQGCFGLPLDRIGSLSGLGC-OH; disulfide 21-37),43.8
2,CC[C@H](C)[C@@H]1NC(=O)[C@H](CCCNC(=N)N)NC(=O)[C@H](CC(=O)O)NC(=O)[C@H](CC(C)C)NC(=O)[C@@H]2CCCN2C(=O)[C@H](CC(C)C)NC(=O)CNC(=O)[C@H](Cc2ccccc2)NC(=O)[C@@H](NC(=O)CNC(=O)[C@H](CO)NC(=O)[C@H](CO)NC(=O)[C@H](CC(C)C)NC(=O)CNC(=O)[C@H](CCCCN)NC(=O)[C@H](CCCCN)NC(=O)[C@H](CCC(N)=O)NC(=O)[C@H](C)NC(=O)CNC(=O)[C@H](CCCCN)NC(=O)[C@H](Cc2ccc(O)cc2)NC(=O)[C@H](CCCCN)NC(=O)[C@H](CCCNC(=N)N)NC(=O)[C@H](C)NC(=O)CC[C@H](NC(=O)CC[C@H](NC(=O)CC[C@H](NC(=O)CC[C@H](NC(=O)CCCCCCCCCCCCCCCCC(=O)O)C(=O)O)C(=O)O)C(=O)O)C(=O)O)CSSC[C@@H](C(=O)O)NC(=O)CNC(=O)[C@H](CC(C)C)NC(=O)CNC(=O)[C@H](CO)NC(=O)[C@H](CC(C)C)NC(=O)[C@H](CO)NC(=O)CNC1=O [compound 1386] ({C18 diacid-γGlu-γGlu-γGlu-γGlu}-ARKYKGAQKKGLSSGCFGLPLDRIGSLSGLGC-OH; disulfide 16-32),36.9
3,CC[C@H](C)[C@@H]1NC(=O)[C@H](CCCNC(=N)N)NC(=O)[C@H](CC(=O)O)NC(=O)[C@H](CC(C)C)NC(=O)[C@@H]2CCCN2C(=O)[C@H](CC(C)C)NC(=O)CNC(=O)[C@H](Cc2ccccc2)NC(=O)[C@@H](NC(=O)CNC(=O)[C@H](CO)NC(=O)[C@H](CO)NC(=O)[C@H](CC(C)C)NC(=O)CNC(=O)[C@H](CCCCN)NC(=O)[C@H](CCCCN)NC(=O)[C@H](CCC(N)=O)NC(=O)[C@H](C)NC(=O)CNC(=O)[C@H](CCCCN)NC(=O)[C@H](Cc2ccc(O)cc2)NC(=O)[C@H](CCCCN)NC(=O)[C@H](CCCNC(=N)N)NC(=O)[C@H](C)NC(=O)[C@H](CCC(N)=O)NC(=O)[C@@H]2CCCN2C(=O)[C@H](Cc2c[nH]cn2)NC(=O)[C@H](CCC(=O)O)NC(=O)[C@H](CCC(N)=O)NC(=O)CC[C@H](NC(=O)CC[C@H](NC(=O)CC[C@H](NC(=O)CC[C@H](NC(=O)CCCCCCCCCCCCCCCCC(=O)O)C(=O)O)C(=O)O)C(=O)O)C(=O)O)CSSC[C@@H](C(=O)O)NC(=O)CNC(=O)[C@H](CC(C)C)NC(=O)CNC(=O)[C@H](CO)NC(=O)[C@H](CC(C)C)NC(=O)[C@H](CO)NC(=O)CNC1=O [compound 1389] ({C18 diacid-γGlu-γGlu-γGlu-γGlu}-QEHPQARKYKGAQKKGLSSGCFGLPLDRIGSLSGLGC-OH; disulfide 21-37),52.3
4,CC[C@H](C)[C@@H]1NC(=O)[C@H](CCCNC(=N)N)NC(=O)[C@H](CC(=O)O)NC(=O)[C@H](CC(C)C)NC(=O)[C@@H]2CCCN2C(=O)[C@H](CC(C)C)NC(=O)CNC(=O)[C@H](Cc2ccccc2)NC(=O)[C@@H](NC(=O)CNC(=O)[C@H](CO)NC(=O)[C@H](CO)NC(=O)[C@H](CC(C)C)NC(=O)CNC(=O)[C@H](CCCCN)NC(=O)[C@H](CCCCN)NC(=O)[C@H](CCC(N)=O)NC(=O)[C@H](C)NC(=O)CNC(=O)[C@H](CCC(=O)O)NC(=O)[C@H](Cc2ccc(O)cc2)NC(=O)COCCOCCNC(=O)COCCOCCNC(=O)COCCOCCNC(=O)COCCOCCNC(=O)CC[C@H](NC(=O)CCCCCCCCCCCCCCCCC(=O)O)C(=O)O)CSSC[C@@H](C(=O)O)NC(=O)CNC(=O)[C@H](CC(C)C)NC(=O)CNC(=O)[C@H](CO)NC(=O)[C@H](CC(C)C)NC(=O)[C@H](CO)NC(=O)CNC1=O [compound 1392] ({C18 diacid-γGlu-AEEA-AEEA-AEEA-AEEA}-YEGAQKKGLSSGCFGLPLDRIGSLSGLGC-OH; disulfide 13-29),29.5
5,CC[C@H](C)[C@@H]1NC(=O)[C@H](CCCNC(=N)N)NC(=O)[C@H](CC(=O)O)NC(=O)[C@H](CC(C)C)NC(=O)[C@@H]2CCCN2C(=O)[C@H](CC(C)C)NC(=O)CNC(=O)[C@H](Cc2ccccc2)NC(=O)[C@@H](NC(=O)CNC(=O)[C@H](CCC(N)=O)NC(=O)[C@H](CO)NC(=O)[C@H](CC(C)C)NC(=O)CNC(=O)[C@H](CCCCN)NC(=O)[C@H](CCCCN)NC(=O)[C@H](CCC(N)=O)NC(=O)[C@H](C)NC(=O)CNC(=O)[C@H](CCCCN)NC(=O)[C@H](Cc2ccc(O)cc2)NC(=O)[C@H](CCCCN)NC(=O)[C@H](CCCNC(=N)N)NC(=O)[C@H](C)NC(=O)[C@H](CCC(N)=O)NC(=O)[C@@H]2CCCN2C(=O)[C@H](Cc2c[nH]cn2)NC(=O)[C@H](CCC(=O)O)NC(=O)[C@H](CCC(N)=O)NC(=O)COCCOCCNC(=O)COCCOCCNC(=O)CC[C@H](NC(=O)CC[C@H](NC(=O)CC[C@H](NC(=O)CC[C@H](NC(=O)CC[C@H](NC(=O)CC[C@H](NC(=O)CCCCCCCCCCCCCCCCC(=O)O)C(=O)O)C(=O)O)C(=O)O)C(=O)O)C(=O)O)C(=O)O)CSSC[C@@H](C(=O)O)NC(=O)CNC(=O)[C@H](CC(C)C)NC(=O)CNC(=O)[C@H](CO)NC(=O)[C@H](CC(C)C)NC(=O)[C@H](CO)NC(=O)CNC1=O [compound 1402] ({C18 diacid-γGlu-γGlu-γGlu-γGlu-γGlu-γGlu-AEEA-AEEA}-QEHPQARKYKGAQKKGLSQGCFGLPLDRIGSLSGLGC-OH; disulfide 21-37),57.6
6,CC[C@H](C)[C@@H]1NC(=O)[C@H](CCCNC(=N)N)NC(=O)[C@H](CC(=O)O)NC(=O)[C@H](CC(C)C)NC(=O)[C@@H]2CCCN2C(=O)[C@H](CC(C)C)NC(=O)CNC(=O)[C@H](Cc2ccccc2)NC(=O)[C@@H](NC(=O)CNC(=O)[C@H](CCC(N)=O)NC(=O)[C@H](CO)NC(=O)[C@H](CC(C)C)NC(=O)CNC(=O)[C@H](CCCCN)NC(=O)[C@H](CCCCN)NC(=O)[C@H](CCC(N)=O)NC(=O)[C@H](C)NC(=O)CNC(=O)[C@H](CCCCN)NC(=O)[C@H](Cc2ccc(O)cc2)NC(=O)[C@H](CCCCN)NC(=O)[C@H](CCCNC(=N)N)NC(=O)[C@H](C)NC(=O)[C@H](CCC(N)=O)NC(=O)[C@@H]2CCCN2C(=O)[C@H](Cc2c[nH]cn2)NC(=O)[C@H](CCC(=O)O)NC(=O)[C@H](CCC(N)=O)NC(=O)COCCOCCNC(=O)COCCOCCNC(=O)COCCOCCNC(=O)COCCOCCNC(=O)CC[C@H](NC(=O)CC[C@H](NC(=O)CC[C@H](NC(=O)CC[C@H](NC(=O)CC[C@H](NC(=O)CC[C@H](NC(=O)CCCCCCCCCCCCCCCCC(=O)O)C(=O)O)C(=O)O)C(=O)O)C(=O)O)C(=O)O)C(=O)O)CSSC[C@@H](C(=O)O)NC(=O)CNC(=O)[C@H](CC(C)C)NC(=O)CNC(=O)[C@H](CO)NC(=O)[C@H](CC(C)C)NC(=O)[C@H](CO)NC(=O)CNC1=O [compound 1404] ({C18 diacid-γGlu-γGlu-γGlu-γGlu-γGlu-γGlu-AEEA-AEEA-AEEA-AEEA}-QEHPQARKYKGAQKKGLSQGCFGLPLDRIGSLSGLGC-OH; disulfide 21-37),81.3
